According to patent US20080009418A1, “Selective Inhibitors” (Alchemia LTD., priority 2004, published 2008):

Tests used:
Human κ-Opioid (KOP) = target: T1, Human κ-Opioid (KOP) (Homo sapiens, UniProt P41145); test: Radioligand binding, human κ-opioid (KOP) membranes, filtration, [3H]-Diprenorphine; conditions: compound at 10 μM; for A2 radioligand binding inhibition: human κ-opioid (KOP) membranes
T1 construct: purchased Perkin Elmer Biosignal
Summary of the method: (§1)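 Membranes from cloned human receptors were incubated with compound and radioligand for 1 hour at room temperature. Bound ligand was collected on 0.3% PEI-soaked filters, washed with cold 50 mM Tris-HCl pH 7.4, and counted by scintillation. Percent inhibition was computed against DMSO totals and reference-ligand nonspecific wells.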

Human μ-opioid (MOP) = target: T2, Human μ-opioid (MOP) (Homo sapiens, UniProt P35372); test: Radioligand binding, human μ-opioid (MOP) membranes, FlashPlate, [3H]-Naloxone; conditions: compound at 10 μM; for A7 radioligand binding inhibition: human μ-opioid (MOP) membranes
T2 construct: purchased Perkin Elmer Biosignal
Summary of the method: (§2)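 Cloned human receptor membranes were coated onto FlashPlate wells and incubated with radioligand and compound (added from a 0.5 mM DMSO daughter plate) for 1 hour at room temperature in the dark. Scintillation counting gave percent inhibition, with DMSO defining total and reference ligand defining non-specific binding.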

Mouse urotensin (mUR2) = target: T3, Mouse urotensin (mUR2) (Mus musculus, UniProt Q8VIH9); test: Radioligand binding, mouse urotensin mUR2 membranes, FlashPlate, [125I]-Urotensin II; conditions: compound at 10 μM; for A11 radioligand binding inhibition: mouse urotensin mUR2 membranes
T3 construct: purchased Perkin Elmer Biosignal
T3 sequence (Q8VIH9 1-385): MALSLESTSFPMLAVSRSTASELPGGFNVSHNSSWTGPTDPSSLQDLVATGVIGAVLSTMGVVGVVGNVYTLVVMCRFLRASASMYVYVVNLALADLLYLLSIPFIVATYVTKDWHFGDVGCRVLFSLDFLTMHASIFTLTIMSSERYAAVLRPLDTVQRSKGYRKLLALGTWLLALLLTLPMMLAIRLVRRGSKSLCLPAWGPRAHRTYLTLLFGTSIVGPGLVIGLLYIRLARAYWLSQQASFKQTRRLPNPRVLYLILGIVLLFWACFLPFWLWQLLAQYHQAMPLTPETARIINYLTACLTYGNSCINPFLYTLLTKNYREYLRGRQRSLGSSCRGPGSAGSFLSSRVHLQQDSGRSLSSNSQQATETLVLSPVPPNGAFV
Summary of the method: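 Cloned mouse urotensin (mUR2) receptor membranes from Perkin Elmer Biosignal were immobilized in FlashPlate microplates using a proprietary coating. Each well got 19.5 μl buffer, then 0.5 μl of DMSO, reference ligand, or compound. Adding 5 μl of [125I]-Urotensin II, diluted to 5× final concentration in binding buffer, started binding. Plates were sealed with TopSeal-A and incubated 1 hour at room temperature in the dark. Wells were counted for 30 seconds each on a TopCount after a 60-second delay, and percentage inhibition was calculated.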

Human opioid (ORL1) = target: T4, Human opioid (ORL1) (Homo sapiens, UniProt P41146); test: Radioligand binding, human opioid ORL1 membranes, FlashPlate, [125I]-Nociceptin; conditions: compound at 10 μM
T4 construct: purchased Perkin Elmer Biosignal
Summary of the method: as §2

[1] = target: T5, Human melanin-concentrating hormone (MCH1) (Homo sapiens, UniProt Q99705); test: Radioligand binding, human melanin-concentrating hormone MCH1 membranes, FlashPlate, [125I]-S36057; conditions: compound at 10 μM; for A6 radioligand binding inhibition: human MCH1 membranes
T5 construct: purchased Perkin Elmer Biosignal
Summary of the method: as §2

[2] = target: T6, Human neuropeptide Y (NPY-Y1) (Homo sapiens, UniProt P25929); test: Radioligand binding, human neuropeptide Y NPY-Y1 membranes, FlashPlate, [125I]-PYY; conditions: compound at 10 μM
T6 construct: purchased Perkin Elmer Biosignal
T6 sequence (P25929 1-384): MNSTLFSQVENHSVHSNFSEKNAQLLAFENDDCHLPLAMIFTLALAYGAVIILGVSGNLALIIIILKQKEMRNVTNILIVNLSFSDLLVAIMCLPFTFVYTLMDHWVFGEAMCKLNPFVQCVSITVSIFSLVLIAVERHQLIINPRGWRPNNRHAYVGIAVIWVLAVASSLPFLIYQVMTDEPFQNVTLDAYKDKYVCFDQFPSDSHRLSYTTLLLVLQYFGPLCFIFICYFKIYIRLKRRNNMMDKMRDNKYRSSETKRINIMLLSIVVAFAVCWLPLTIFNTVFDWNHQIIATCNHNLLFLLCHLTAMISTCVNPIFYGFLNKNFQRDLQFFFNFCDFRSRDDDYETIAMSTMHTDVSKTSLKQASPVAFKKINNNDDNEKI
Summary of the method: as §2

Human melanocortin (MC5) = target: T7, Human melanocortin (MC5) (Homo sapiens, UniProt P33032); test: Radioligand binding, human melanocortin MC5 membranes, FlashPlate, [125I]-NDP-αMSH; conditions: compound at 10 μM; for A5 radioligand binding inhibition: human melanocortin MC5 membranes
T7 construct: purchased Perkin Elmer Biosignal
Summary of the method: as §2

Human neurokinin (NK1) = target: T8, Human neurokinin (NK1) (Homo sapiens, UniProt P25103); test: Radioligand binding, human neurokinin NK1 membranes, filtration, [125I]-Substance P; conditions: compound at 10 μM; for A8 radioligand binding inhibition: human neurokinin NK1 membranes
T8 construct: purchased Perkin Elmer Biosignal
Summary of the method: as §1

Human Melanocortin (MC4) = target: T9, Human Melanocortin (MC4) (Homo sapiens, UniProt P32245); test: Radioligand binding, human melanocortin MC4 membranes, FlashPlate, [125I]-NDP-αMSH; conditions: compound at 10 μM; for A4 radioligand binding inhibition: human melanocortin MC4 membranes
T9 construct: purchased Perkin Elmer Biosignal
Summary of the method: as §2

Human Melanocortin (MC3) = target: T10, Human Melanocortin (MC3) (Homo sapiens, UniProt P41968); test: Radioligand binding, human melanocortin MC3 membranes, FlashPlate, [125I]-NDP-αMSH; conditions: compound at 10 μM; for A3 radioligand binding inhibition: human melanocortin MC3 membranes
T10 construct: purchased Perkin Elmer Biosignal
Summary of the method: as §2

Human δ-opioid (DOP) = target: T11, Human δ-opioid (DOP) (Homo sapiens, UniProt P41143); test: Radioligand binding, human δ-opioid (DOP) membranes, FlashPlate, [3H]-Bremazocine; conditions: compound at 10 μM; for A1 radioligand binding inhibition: human δ-opioid (DOP) membranes
T11 construct: purchased Perkin Elmer Biosignal
Summary of the method: as §2

T2 sequence (P35372 whole entry): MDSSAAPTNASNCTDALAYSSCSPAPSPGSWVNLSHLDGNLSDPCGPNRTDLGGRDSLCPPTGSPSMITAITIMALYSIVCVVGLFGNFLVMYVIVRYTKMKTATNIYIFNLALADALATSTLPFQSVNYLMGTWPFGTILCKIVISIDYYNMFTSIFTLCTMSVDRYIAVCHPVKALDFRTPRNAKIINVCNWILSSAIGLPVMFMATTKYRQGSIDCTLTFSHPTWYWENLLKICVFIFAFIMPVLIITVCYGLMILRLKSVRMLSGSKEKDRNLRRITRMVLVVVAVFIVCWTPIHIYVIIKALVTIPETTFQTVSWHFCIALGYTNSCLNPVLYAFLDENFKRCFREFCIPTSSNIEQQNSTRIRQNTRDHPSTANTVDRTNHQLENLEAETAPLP
T9 sequence (P32245 whole entry): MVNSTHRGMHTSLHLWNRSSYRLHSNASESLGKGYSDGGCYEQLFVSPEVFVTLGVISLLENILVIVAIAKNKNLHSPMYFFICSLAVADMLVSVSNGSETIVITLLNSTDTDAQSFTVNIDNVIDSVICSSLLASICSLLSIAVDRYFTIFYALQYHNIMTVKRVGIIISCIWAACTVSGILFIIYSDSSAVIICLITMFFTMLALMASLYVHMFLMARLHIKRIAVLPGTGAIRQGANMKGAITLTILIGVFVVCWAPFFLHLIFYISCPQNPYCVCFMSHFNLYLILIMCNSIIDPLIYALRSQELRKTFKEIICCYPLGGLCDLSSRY
T10 sequence (P41968 whole entry): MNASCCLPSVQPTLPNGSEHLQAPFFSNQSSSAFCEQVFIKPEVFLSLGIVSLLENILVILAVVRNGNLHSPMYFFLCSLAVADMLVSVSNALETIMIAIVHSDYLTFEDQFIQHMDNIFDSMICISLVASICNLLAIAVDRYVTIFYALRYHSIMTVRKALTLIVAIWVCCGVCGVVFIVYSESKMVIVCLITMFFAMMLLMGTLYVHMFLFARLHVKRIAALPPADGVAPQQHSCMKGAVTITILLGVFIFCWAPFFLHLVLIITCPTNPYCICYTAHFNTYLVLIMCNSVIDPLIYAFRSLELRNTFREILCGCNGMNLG
T11 sequence (P41143 whole entry): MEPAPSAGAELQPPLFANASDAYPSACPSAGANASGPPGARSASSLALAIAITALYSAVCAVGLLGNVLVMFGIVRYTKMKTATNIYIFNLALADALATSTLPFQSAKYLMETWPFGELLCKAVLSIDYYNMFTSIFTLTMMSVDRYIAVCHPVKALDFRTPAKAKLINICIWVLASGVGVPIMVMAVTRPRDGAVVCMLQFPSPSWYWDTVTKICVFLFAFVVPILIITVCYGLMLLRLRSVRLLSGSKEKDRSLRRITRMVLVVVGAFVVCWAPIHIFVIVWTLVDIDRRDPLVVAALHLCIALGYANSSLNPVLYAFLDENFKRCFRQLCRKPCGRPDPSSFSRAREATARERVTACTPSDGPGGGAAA
T4 sequence (P41146 whole entry): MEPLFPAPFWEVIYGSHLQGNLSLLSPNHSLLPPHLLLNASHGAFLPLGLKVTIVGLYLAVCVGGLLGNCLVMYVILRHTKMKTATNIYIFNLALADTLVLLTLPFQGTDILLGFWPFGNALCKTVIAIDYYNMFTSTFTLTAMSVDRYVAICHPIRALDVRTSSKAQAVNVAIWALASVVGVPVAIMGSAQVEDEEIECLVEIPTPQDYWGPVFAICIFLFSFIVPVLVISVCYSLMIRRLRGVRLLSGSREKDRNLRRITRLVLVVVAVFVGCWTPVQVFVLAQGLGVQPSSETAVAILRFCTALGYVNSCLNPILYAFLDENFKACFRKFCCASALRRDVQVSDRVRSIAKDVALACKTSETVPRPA
T5 sequence (Q99705 whole entry): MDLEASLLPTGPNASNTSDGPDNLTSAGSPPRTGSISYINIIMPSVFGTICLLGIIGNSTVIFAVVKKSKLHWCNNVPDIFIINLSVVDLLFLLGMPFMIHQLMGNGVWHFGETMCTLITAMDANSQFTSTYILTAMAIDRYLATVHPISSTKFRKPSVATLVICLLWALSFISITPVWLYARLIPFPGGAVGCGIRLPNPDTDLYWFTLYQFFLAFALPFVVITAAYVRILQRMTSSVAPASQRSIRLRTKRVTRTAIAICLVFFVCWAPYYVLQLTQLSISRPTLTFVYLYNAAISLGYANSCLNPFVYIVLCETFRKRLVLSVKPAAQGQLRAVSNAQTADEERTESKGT
T1 sequence (P41145 whole entry): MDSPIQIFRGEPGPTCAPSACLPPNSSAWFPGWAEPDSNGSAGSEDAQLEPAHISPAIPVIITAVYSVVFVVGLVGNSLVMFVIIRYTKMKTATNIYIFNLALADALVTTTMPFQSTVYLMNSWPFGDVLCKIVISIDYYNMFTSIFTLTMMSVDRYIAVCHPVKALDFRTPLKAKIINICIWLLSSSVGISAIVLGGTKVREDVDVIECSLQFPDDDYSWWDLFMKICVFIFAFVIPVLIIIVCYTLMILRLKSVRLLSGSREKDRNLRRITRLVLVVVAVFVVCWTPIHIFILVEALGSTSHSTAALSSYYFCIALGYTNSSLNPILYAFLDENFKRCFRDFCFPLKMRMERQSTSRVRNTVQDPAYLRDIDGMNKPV
T8 sequence (P25103 whole entry): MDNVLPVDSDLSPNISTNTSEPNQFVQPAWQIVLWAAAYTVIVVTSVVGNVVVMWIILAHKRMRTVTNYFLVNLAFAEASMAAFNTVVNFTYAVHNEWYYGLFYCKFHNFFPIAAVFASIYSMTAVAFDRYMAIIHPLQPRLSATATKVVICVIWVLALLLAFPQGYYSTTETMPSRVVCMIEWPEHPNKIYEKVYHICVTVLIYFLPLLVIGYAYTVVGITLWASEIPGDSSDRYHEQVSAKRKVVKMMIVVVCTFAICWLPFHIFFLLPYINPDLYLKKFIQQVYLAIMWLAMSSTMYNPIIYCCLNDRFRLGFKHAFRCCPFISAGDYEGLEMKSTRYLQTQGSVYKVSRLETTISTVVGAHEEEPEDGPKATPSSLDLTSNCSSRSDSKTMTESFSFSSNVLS
T7 sequence (P33032 whole entry): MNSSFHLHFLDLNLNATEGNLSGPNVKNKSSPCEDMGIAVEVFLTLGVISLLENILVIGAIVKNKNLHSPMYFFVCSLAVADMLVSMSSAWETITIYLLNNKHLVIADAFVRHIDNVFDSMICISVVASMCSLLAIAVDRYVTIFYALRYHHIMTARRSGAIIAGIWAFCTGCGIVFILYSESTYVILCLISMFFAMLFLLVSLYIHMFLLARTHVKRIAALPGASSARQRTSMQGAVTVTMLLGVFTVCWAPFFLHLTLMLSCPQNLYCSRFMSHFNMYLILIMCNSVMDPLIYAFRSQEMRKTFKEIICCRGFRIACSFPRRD

NCCCC(=O)NC1C(OCc2ccc3ccccc3c2)OC(COCc2ccc3ccccc3c2)C(O)C1OCc1ccc2ccccc2c1 (single isomer, unassigned) [compound 460]
A2: inhibition of radioligand binding (Human κ-Opioid (KOP); [3H]-Diprenorphine, human KOP membranes): − (“−” indicates less than 50% inhibition at 10 μM)
A7: inhibition of radioligand binding (Human μ-opioid (MOP); [3H]-Naloxone, human MOP membranes, 10 µM): − (“−” indicates less than 50% inhibition at 10 μM)
A11: inhibition of radioligand binding (Mouse urotensin (mUR2); [125I]-Urotensin II, mouse mUR2 membranes): − (“−” indicates less than 50% inhibition at 10 μM)
A10: inhibition of radioligand binding (Human opioid (ORL1); [125I]-Nociceptin, human ORL1 membranes, 10 µM): − (“−” indicates less than 50% inhibition at 10 μM)
A6: inhibition of radioligand binding ([1]; [125I]-S36057, human MCH1 membranes, 10 µM): − (“−” indicates less than 50% inhibition at 10 μM)
A9: inhibition of radioligand binding ([2]; [125I]-PYY, human NPY-Y1 membranes): − (“−” indicates less than 50% inhibition at 10 μM)
A5: inhibition of radioligand binding (Human melanocortin (MC5); [125I]-NDP-αMSH, human MC5 membranes): + (“+” indicates greater than 50% inhibition at 10 μM)
A8: inhibition of radioligand binding (Human neurokinin (NK1); [125I]-Substance P, human NK1 membranes): + (“+” indicates greater than 50% inhibition at 10 μM)
A4: inhibition of radioligand binding (Human Melanocortin (MC4); [125I]-NDP-αMSH, human MC4 membranes, 10 µM): − (“−” indicates less than 50% inhibition at 10 μM)
A3: inhibition of radioligand binding (Human Melanocortin (MC3); [125I]-NDP-αMSH, human MC3 membranes, 10 µM): − (“−” indicates less than 50% inhibition at 10 μM)
A1: inhibition of radioligand binding (Human δ-opioid (DOP); [3H]-Bremazocine, human DOP membranes): − (“−” indicates less than 50% inhibition at 10 μM)

COC[C@H]1OC(OCc2ccc(-c3ccccc3)cc2)[C@H](NC(=O)CNC(=N)N)[C@@H](OCc2ccc(-c3ccccc3)cc2)[C@@H]1O (some centres unmarked) [compound 1]
A2 radioligand binding inhibition (Human κ-Opioid (KOP)): − (“−” indicates less than 50% inhibition at 10 μM)
A7 radioligand binding inhibition (Human μ-opioid (MOP)): − (“−” indicates less than 50% inhibition at 10 μM)
A11 radioligand binding inhibition (Mouse urotensin (mUR2)): − (“−” indicates less than 50% inhibition at 10 μM)
A10 radioligand binding inhibition (Human opioid (ORL1); human ORL1 membranes): − (“−” indicates less than 50% inhibition at 10 μM)
A6 radioligand binding inhibition [1]: + (“+” indicates greater than 50% inhibition at 10 μM)
A9 radioligand binding inhibition ([2]; human NPY-Y1 membranes): − (“−” indicates less than 50% inhibition at 10 μM)
A5 radioligand binding inhibition (Human melanocortin (MC5)): + (“+” indicates greater than 50% inhibition at 10 μM)
A8 radioligand binding inhibition (Human neurokinin (NK1)): + (“+” indicates greater than 50% inhibition at 10 μM)
A4 radioligand binding inhibition (Human Melanocortin (MC4)): + (“+” indicates greater than 50% inhibition at 10 μM)
A3 radioligand binding inhibition (Human Melanocortin (MC3)): + (“+” indicates greater than 50% inhibition at 10 μM)
A1 radioligand binding inhibition (Human δ-opioid (DOP)): − (“−” indicates less than 50% inhibition at 10 μM)

COC[C@H]1OC(OCc2ccc(-c3ccccc3)cc2)[C@H](NC(=O)CCNC(=N)N)[C@@H](OCc2ccc(Cl)cc2)[C@@H]1O (some centres unmarked) [compound 11]
A2 radioligand binding inhibition (Human κ-Opioid (KOP)): + (“+” indicates greater than 50% inhibition at 10 μM)
A7 radioligand binding inhibition (Human μ-opioid (MOP)): + (“+” indicates greater than 50% inhibition at 10 μM)
A11 radioligand binding inhibition (Mouse urotensin (mUR2)): − (“−” indicates less than 50% inhibition at 10 μM)
A10 radioligand binding inhibition (Human opioid (ORL1); human ORL1 membranes): − (“−” indicates less than 50% inhibition at 10 μM)
A6 radioligand binding inhibition [1]: + (“+” indicates greater than 50% inhibition at 10 μM)
A9 radioligand binding inhibition ([2]; human NPY-Y1 membranes): − (“−” indicates less than 50% inhibition at 10 μM)
A5 radioligand binding inhibition (Human melanocortin (MC5)): + (“+” indicates greater than 50% inhibition at 10 μM)
A8 radioligand binding inhibition (Human neurokinin (NK1)): + (“+” indicates greater than 50% inhibition at 10 μM)
A4 radioligand binding inhibition (Human Melanocortin (MC4)): + (“+” indicates greater than 50% inhibition at 10 μM)
A3 radioligand binding inhibition (Human Melanocortin (MC3)): − (“−” indicates less than 50% inhibition at 10 μM)
A1 radioligand binding inhibition (Human δ-opioid (DOP)): + (“+” indicates greater than 50% inhibition at 10 μM)

N=C(N)NCC(=O)N[C@H]1C(OCc2ccc(Cl)cc2)O[C@H](COCc2ccc(Cl)cc2)[C@@H](O)[C@@H]1OCc1ccc(-c2ccccc2)cc1 (some centres unmarked) [compound 520]
A2: inhibition of radioligand binding, human κ-opioid (KOP) (Human κ-Opioid (KOP); [3H]-Diprenorphine): − (“−” indicates less than 50% inhibition at 10 μM)
A7: inhibition of radioligand binding, human μ-opioid (MOP) (Human μ-opioid (MOP); [3H]-Naloxone): − (“−” indicates less than 50% inhibition at 10 μM)
A11: inhibition of radioligand binding, mouse urotensin (mUR2) (Mouse urotensin (mUR2); [125I]-Urotensin II): − (“−” indicates less than 50% inhibition at 10 μM)
A10: inhibition of radioligand binding, human opioid (ORL1) (Human opioid (ORL1); [125I]-Nociceptin, 10 µM): − (“−” indicates less than 50% inhibition at 10 μM)
A6: inhibition of radioligand binding, human melanin-concentrating hormone (MCH1) ([1]; [125I]-S36057): + (“+” indicates greater than 50% inhibition at 10 μM)
A9: inhibition of radioligand binding, human neuropeptide Y (NPY-Y1) ([2]; [125I]-PYY): − (“−” indicates less than 50% inhibition at 10 μM)
A5: inhibition of radioligand binding, human melanocortin (MC5) (Human melanocortin (MC5); [125I]-NDP-αMSH): + (“+” indicates greater than 50% inhibition at 10 μM)
A8: inhibition of radioligand binding, human neurokinin (NK1) (Human neurokinin (NK1); [125I]-Substance P): + (“+” indicates greater than 50% inhibition at 10 μM)
A4: inhibition of radioligand binding, human melanocortin (MC4) (Human Melanocortin (MC4); [125I]-NDP-αMSH): + (“+” indicates greater than 50% inhibition at 10 μM)
A3: inhibition of radioligand binding, human melanocortin (MC3) (Human Melanocortin (MC3); [125I]-NDP-αMSH): + (“+” indicates greater than 50% inhibition at 10 μM)
A1: inhibition of radioligand binding, human δ-opioid (DOP) (Human δ-opioid (DOP); [3H]-Bremazocine): − (“−” indicates less than 50% inhibition at 10 μM)
